Test [1] deals with T1, Lysine-specific demethylase 4C (Homo sapiens, UniProt Q9H3R0).
T1 sequence (Q9H3R0 whole entry): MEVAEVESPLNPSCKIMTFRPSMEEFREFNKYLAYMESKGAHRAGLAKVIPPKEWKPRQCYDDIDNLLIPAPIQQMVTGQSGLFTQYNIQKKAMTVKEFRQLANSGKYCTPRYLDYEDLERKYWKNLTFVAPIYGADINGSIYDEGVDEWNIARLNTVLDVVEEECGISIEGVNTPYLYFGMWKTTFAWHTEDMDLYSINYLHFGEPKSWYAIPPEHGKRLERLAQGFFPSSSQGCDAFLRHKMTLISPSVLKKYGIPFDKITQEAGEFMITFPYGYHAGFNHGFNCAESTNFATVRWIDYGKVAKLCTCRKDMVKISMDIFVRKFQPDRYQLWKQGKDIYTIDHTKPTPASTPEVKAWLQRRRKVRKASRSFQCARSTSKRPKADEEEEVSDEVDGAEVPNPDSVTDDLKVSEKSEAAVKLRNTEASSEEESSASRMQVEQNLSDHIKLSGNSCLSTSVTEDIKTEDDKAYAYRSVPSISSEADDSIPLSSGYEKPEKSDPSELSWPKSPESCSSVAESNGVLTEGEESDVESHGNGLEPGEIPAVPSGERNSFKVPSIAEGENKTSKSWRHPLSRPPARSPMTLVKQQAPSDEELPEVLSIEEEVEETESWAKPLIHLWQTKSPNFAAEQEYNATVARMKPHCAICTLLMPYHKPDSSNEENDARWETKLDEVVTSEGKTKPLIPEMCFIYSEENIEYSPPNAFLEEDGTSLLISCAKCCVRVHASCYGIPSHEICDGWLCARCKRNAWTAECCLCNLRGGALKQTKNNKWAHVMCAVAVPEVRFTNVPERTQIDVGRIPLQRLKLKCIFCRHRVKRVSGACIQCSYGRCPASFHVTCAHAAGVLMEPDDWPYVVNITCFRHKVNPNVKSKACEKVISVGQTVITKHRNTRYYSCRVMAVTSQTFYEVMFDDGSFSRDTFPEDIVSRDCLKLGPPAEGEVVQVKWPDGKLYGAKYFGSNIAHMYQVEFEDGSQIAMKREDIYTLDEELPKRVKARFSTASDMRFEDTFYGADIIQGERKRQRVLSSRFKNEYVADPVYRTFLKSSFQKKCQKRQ
Kind of test: (§1) Inhibition of N-terminal His6-tagged KDM4C (1 to 352 residues) (unknown origin) expressed in Escherichia coli Rosetta 2(DE3)pLysS using biotinylated histone H3 (1 to 21 residues) lysine 9 trimethylated peptide/2 uM alpha-ketoglutarate as substrate/cofactor measured after 45 mins by TR-FRET assay. On the technique in general: In TR-FRET formats the signal depends on donor and acceptor labels being close together.

Test [2] concerns the target T1, Lysine-specific demethylase 4C. Kind of test: Inhibition of N-terminal His6-tagged KDM4C (1 to 352 residues) (unknown origin) expressed in Escherichia coli Rosetta 2(DE3)pLysS using biotinylated histone H3 (1 to 21 residues) lysine 9 trimethylated peptide/50 uM alpha-ketoglutarate as substrate/cofactor measured after 45 mins by TR-FRET assay.
Test [3] deals with T2, Lysine-specific demethylase 4C (Homo sapiens) (UniProt Q9H3R0).
T2 sequence (whole entry): T1 sequence (Q9H3R0 whole entry)
The description is as §1.

The nature of test [4]: Induction of aggregates formation assessed as particle formation up to 10 uM by dynamic light scattering method.
In test [5] the target is T2, Lysine-specific demethylase 4C (Homo sapiens). Kind of test: Binding affinity to N-terminal His6-tagged KDM4C (1 to 352 residues) (unknown origin) expressed in Escherichia coli Rosetta 2(DE3)pLysS at 1.7 mM by SYPRO Orange dye based thermal shift assay.
Test [6] is described as follows: Inhibition of AmpC beta-lactamase (unknown origin).

Activity calls are given as the source filed them. No cut-off for these calls is given here.

Regarding `O=C(O)[C@@H]1CC(=O)N(c2nccs2)C1`, in test [1] (read-out: IC50), the IC50 (as a rule, the midpoint of a concentration-inhibition curve) stood at 676 µM. The same measure, in the same setting: the result for `COc1ccc(N)cc1-c1cc(C(=O)O)ccn1` reads 310 µM; that for `NC(=O)N[C@@H](Cc1c[nH]c2ccccc12)C(=O)O`, 18.6 µM. In the case of `O=C(Cc1cccc(Br)c1)Nc1ccc(O)c(-c2cc(C(=O)O)ccn2)c1`, the concentration for half-maximal inhibition (IC50) is 0.17 µM in test [1] (read-out: IC50) and 3.4 µM in test [2] (read-out: IC50). Regarding `CC(=O)c1ccccc1-c1cc(C(=O)O)ccn1`, the IC50 in test [1] (read-out: IC50) came to 507 µM. Same read-out and setting: in the case of `Cn1nccc1CNc1ccc(O)c(-c2cc(C(=O)O)ccn2)c1` it was 0.77 µM. Still for that read-out and setting: the result for `C[C@@H](NC(=O)c1cc(Cl)ccn1)C(=O)O` reads 1210 µM.

Consider `Cc1cc(O)c2c(CC(=O)O)cc(=O)oc2c1`, for which the IC50 in test [1] (read-out: IC50) was found to be 176 µM. Same read-out and setting: in the case of `O=C(O)Cn1nnnc1COc1ccccc1` it was 2320 µM; in that of `O=C(O)c1ccnc(-c2cc(NCc3ccc(Br)cc3)ccc2O)c1`, 2.5 µM. Turning to `O=C(Cc1ccccc1)Nc1ccc(O)c(-c2cc(C(=O)O)ccn2)c1`, the figures for the 50% inhibitory concentration (IC50) in test [1] (read-out: IC50) and in test [2] (read-out: IC50) were 0.43 µM and 17 µM, respectively. Turning to `O=C(O)c1ccnc(-c2cc(NC(=O)c3cccc(O)c3)ccc2O)c1`, the IC50 in test [1] (read-out: IC50) was 0.46 µM. For `CCNC(=S)Nc1ccc(O)c(C(=O)O)c1`, in test [1] (read-out: IC50), the IC50 stood at 165 µM. On the same count and under the same terms, the result for `CN1CCN(C(=O)c2ccn(CC(=O)O)n2)CC1` reads 387 µM. For the compound `O=C(O)CNC(=O)c1ccc2ccccc2n1`, the IC50 in test [1] (read-out: IC50) came to 2810 µM. On to `CC(=O)Nc1ccc(O)c(C(=O)O)c1`, for which, in test [3], the inhibition result is “inactive”. Regarding `CC(=O)N[C@@H](CCC(=O)O)C(=O)O`, in test [1] (read-out: IC50), the half-inhibitory concentration (IC50) was found to be 2070 µM.

`Cn1nccc1CNc1ccc(O)c(C(=O)O)c1`: the IC50 in test [1] (read-out: IC50) was determined as 58 µM. For the same compound, the outcome in test [4] was inactive.

In the case of `CC(=O)Nc1ccc(O)c(-c2ccccn2)c1`, the IC50 result in test [1] and in test [2] was “Not Active” throughout. With `NC(=O)N[C@H](Cc1c[nH]c2ccccc12)C(=O)O`, the IC50 in test [1] (read-out: IC50) turned out to be 54.7 µM. Still for that read-out and setting: the result for `O=C(O)c1ccnc(-c2cc(NCc3cccc4c3OCO4)ccc2O)c1` reads 0.56 µM. As for `Cc1ccccc1CNc1ccc(O)c(C(=O)O)c1`, the result in test [5] was Active. Further, in test [6], the inhibition entry was “inactive”.

As for `COCC(=O)Nc1ccc(O)c(C(=O)O)c1`, the half-maximal inhibitory concentration (IC50) in test [1] (read-out: IC50) worked out at 98 µM. Moreover, in test [4], the result was inactive. For the compound `Nc1ccc(O)c(-c2cc(C(=O)O)ccn2)c1`, in test [1] (read-out: IC50), the IC50 was 8.3 µM. On to `COc1ccc(CC(=O)Nc2ccc(O)c(-c3cc(C(=O)O)ccn3)c2)cc1`, for which the IC50 was found to be 0.069 µM in test [1] (read-out: IC50) and 3.7 µM in test [2] (read-out: IC50). For `CCCNC(=O)NC(C)(C)C(=O)O`, in test [1] (read-out: IC50), the half-maximal inhibitory concentration (IC50) turned out to be 126 µM. Still for that read-out and setting: the result for `N#Cc1ccc(O)c(-c2cc(C(=O)O)ccn2)c1` reads 6 µM; that for `O=C(O)c1ccnc(-c2cc(NC(=O)c3ccno3)ccc2O)c1`, 1.02 µM. The same measure, in the same setting: the result for `O=C(O)c1cc(NCc2cccc3c2OCO3)ccc1O` reads 15 µM; that for `O=C(O)c1ccnc(-c2cc(NC(=O)c3ccccc3O)ccc2O)c1`, 4.6 µM.

The record behind these values is ChEMBL document CHEMBL3774347, “Docking and Linking of Fragments To Discover Jumonji Histone Demethylase Inhibitors” (J Med Chem, 2016).
